Measured values reported in ChEMBL document CHEMBL1140845, “Synthesis of deoxygenated alpha(1-->5)-linked arabinofuranose disaccharides as substrates and inhibitors of arabinosyltransferases of Mycobacterium tuberculosis” (Bioorg Med Chem, 2009).
Activity calls are given as the source filed them. The calls are words filed in the database; no cut-off is given here.

System: Mycobacterium tuberculosis
Assay: Antimycobacterial activity against multidrug resistant Mycobacterium tuberculosis H37Ra at 12.8 to 128 ug/mL
Type: functional, organism-based

SMILES | Activity
CCCCCCCCO[C@H]1O[C@H](CO[C@H]2O[C@H](CO)[C@@H](O)[C@@H]2O)C[C@@H]1O | Active
CCCCCCCCO[C@H]1O[C@H](CO[C@H]2O[C@H](CO)[C@@H](O)[C@@H]2O)[C@@H](O)[C@@H]1F | Active
CCCCCCCCO[C@@H]1C[C@H](O)[C@@H](CO[C@H]2O[C@H](CO)[C@@H](O)[C@@H]2O)O1 | Active
